Experimental findings from paper PMC11724075, “Small-molecule-induced ERBB4 activation to treat heart failure” (Nature Communications, 2025) are described below.

Molecules are shown by their SMILES. “And” between values parts separate entries of the source, which are not always exact repeats. Equal entries are not always repeated.

The test system of test [1] is mouse model of DOX-induced acute cardiac toxicity. Kind of test: Acute high-dose DOX-induced cardiotoxicity, cTnI ELISA, wild type mice. Also noted: In vivo DOX experiment in female wild type mice with EF-1 (cTnI) / In vivo DOX experiment in fmale wild type mice with EF-1 (cTnI): unit not given here. In kind it is in vivo. On the procedure: DOX (20 mg/kg; Pfizer, 4222) was administered intraperitoneally once on day 4 to induce cardiotoxicity. On day 7, mice were euthanized, serum samples were collected via the retrobulbar sinus and hearts were excised.
Serum samples were centrifuged for 15 min (1000 × g) at 4 °C and analyzed using a mouse cardiac Troponin I Type 3 ELISA kit (Novus Biologicals, NBP3–00456), according to the manufacturer’s instructions. Briefly, a 96-well microplate was coated with an anti-mouse TNNI3/cTnI primary antibody (Capture Antibody Solution). Standard solution or samples (100 μL) were added to the plate and incubated for 90 min at 37 °C. A biotinylated anti-mouse TNNI3/cTnI detection antibody was added, and the plate was incubated for 1 h at 37 °C followed by 3 washes with Wash Buffer. An avidin–horseradish peroxidase conjugate (Detection Antibody Solution) was then added, and the plate was incubated once more for 30 min at 37 °C. After 3 washes with Wash Buffer, Substrate Reagent was added. Following incubation for 15 min at 37 °C, the enzymatic reaction was terminated by the addition of Stop Solution. Sample optical densities at 450 nm were converted to […] concentrations of mouse TNNI3/cTnI using a calibration curve.
A general note: ELISA stands for enzyme-linked immunosorbent assay.

Another test concerns the target T1, ERBB2/ERBB4 (Homo sapiens, UniProt Q15303).
T1 construct: host or cells: U2OS (osteosarcoma cells), PathHunter engineered line
As to the kind of experiment: PathHunter U2OS ERBB2/ERBB4 dimerization assay. The test is classed as cell-based. Particulars: for ERBB4/ERBB2 dimerization signal: relative to signal with 0.1 µM NRG1, single biological replicates. On the procedure: PathHunter U2OS ERBB4/ERBB4 (osteosarcoma cells; Eurofins, 93-0961C3), U2OS ERBB2/ERBB4 (osteosarcoma cells; Eurofins, 493-0960C3), ERBB2/ERBB3 (osteosarcoma cells; Eurofins, 93-1042C3) and ERBB1/ERBB1 (osteosarcoma cells; Eurofins, 93-0989C3) dimerization cell lines were cultured according to the manufacturer’s instructions. Briefly, cells were cultured in Cell Culture Reagent 103 (Eurofins, 92-3103 G) supplemented with 250 µg/mL Hygromycin B (Eurofins, 92-0029) and 500 µg/mL G418 (Eurofins, 92-0030), and were maintained at 37 °C in humidified atmosphere of 5% CO2. HCFs (Innoprot, P10454) were cultured in fibroblast medium (Innoprot, P60108) supplemented with 10% (v/v) fetal bovine serum (FBS, Innoprot), 10% (v/v) fibroblast growth supplement (Innoprot), and 1% (v/v) penicillin/streptomycin solution (Innoprot). iAMs[33] (kindly provided by LUMC) were cultured in Advanced DMEM F-12 (Thermo Fisher Scientific, 12634028) supplemented with 2% (v/v) heat-inactivated FBS (Thermo Fisher Scientific, 10270106), 1% (v/v) penicillin/streptomycin (10,000 units/mL and 10 mg/mL respectively, Thermo Fisher Scientific, 15140122), 1× GlutaMAX (Thermo Fisher Scientific, 35050061), and 100 ng/mL doxycycline (Tocris, 4090) for proliferation. To induce differentiation, iAMs were transferred to medium without doxycycline.
U2OS ERBB4/ERBB4 dimerization cells were seeded at a density of 5 × 10^4 cells/well in 100 µL Cell Plating 0 Reagent, in white 96-well plates (PerkinElmer, 6005680) and incubated for 24 h at 37 °C, 5% CO2. […] Next, 110 µL PathHunter Flash Detection Reagent was added to each well and incubated at RT for 1 h after which the luminescence signal was measured using the Luminoskan Ascent (Thermo Fisher Scientific). […] The same experimental set-up was used for the U2OS ERBB2/ERBB4, U2OS ERBB2/ERBB3 and U2OS ERBB1/ERBB1 dimerization cell lines.

For a further test, the system named is iAMs. Kind of test: Cardiomyocyte hypertrophy assay: CSA of iAMs after AngII, also with PD98059. In kind it is cell-based, rat. On the procedure:
iAMs were seeded at a density of 10^4 cells/well in differentiation medium in 24-well plates (Greiner Bio-One, 662160) and differentiated over 9 days (d0 = day of seeding). […] To determine CSA, cells were fixed with 4% paraformaldehyde (PFA, Thermo Fisher Scientific, 043368.9 M) for 30 min at 4 °C. Cells were washed thrice with PBS and permeabilized by incubation with 0.1% Triton X-100 (Merck, 10789704001) for 10 min at RT. iAMs were stained with Alexa Fluor 568 phalloidin (Thermo Fisher Scientific, A12380) in 1% BSA-PBS solution for 1 h at RT. After washing 3 times with PBS, DAPI (Merck, D9542) was added. Images were obtained by fluorescence microscopy (Celena S).
CSA was quantified using an automated algorithm, custom-made in Python[67]. The mode mD (maximum of the histogram) of DAPI intensities (excluding 0) was determined and binary segmentation of nuclei was created with threshold mD + SDD (with SDD the SD of DAPI intensities). Distinct objects with an area less than 500 pixels and nuclei where the average overlapping iAM signal was less than mdA + 0.5 SDA (with mdA and SDA the median and SD of the Alexa Fluor 568 intensity, respectively) were removed. […]

T1 sequence (Q15303 26-1308): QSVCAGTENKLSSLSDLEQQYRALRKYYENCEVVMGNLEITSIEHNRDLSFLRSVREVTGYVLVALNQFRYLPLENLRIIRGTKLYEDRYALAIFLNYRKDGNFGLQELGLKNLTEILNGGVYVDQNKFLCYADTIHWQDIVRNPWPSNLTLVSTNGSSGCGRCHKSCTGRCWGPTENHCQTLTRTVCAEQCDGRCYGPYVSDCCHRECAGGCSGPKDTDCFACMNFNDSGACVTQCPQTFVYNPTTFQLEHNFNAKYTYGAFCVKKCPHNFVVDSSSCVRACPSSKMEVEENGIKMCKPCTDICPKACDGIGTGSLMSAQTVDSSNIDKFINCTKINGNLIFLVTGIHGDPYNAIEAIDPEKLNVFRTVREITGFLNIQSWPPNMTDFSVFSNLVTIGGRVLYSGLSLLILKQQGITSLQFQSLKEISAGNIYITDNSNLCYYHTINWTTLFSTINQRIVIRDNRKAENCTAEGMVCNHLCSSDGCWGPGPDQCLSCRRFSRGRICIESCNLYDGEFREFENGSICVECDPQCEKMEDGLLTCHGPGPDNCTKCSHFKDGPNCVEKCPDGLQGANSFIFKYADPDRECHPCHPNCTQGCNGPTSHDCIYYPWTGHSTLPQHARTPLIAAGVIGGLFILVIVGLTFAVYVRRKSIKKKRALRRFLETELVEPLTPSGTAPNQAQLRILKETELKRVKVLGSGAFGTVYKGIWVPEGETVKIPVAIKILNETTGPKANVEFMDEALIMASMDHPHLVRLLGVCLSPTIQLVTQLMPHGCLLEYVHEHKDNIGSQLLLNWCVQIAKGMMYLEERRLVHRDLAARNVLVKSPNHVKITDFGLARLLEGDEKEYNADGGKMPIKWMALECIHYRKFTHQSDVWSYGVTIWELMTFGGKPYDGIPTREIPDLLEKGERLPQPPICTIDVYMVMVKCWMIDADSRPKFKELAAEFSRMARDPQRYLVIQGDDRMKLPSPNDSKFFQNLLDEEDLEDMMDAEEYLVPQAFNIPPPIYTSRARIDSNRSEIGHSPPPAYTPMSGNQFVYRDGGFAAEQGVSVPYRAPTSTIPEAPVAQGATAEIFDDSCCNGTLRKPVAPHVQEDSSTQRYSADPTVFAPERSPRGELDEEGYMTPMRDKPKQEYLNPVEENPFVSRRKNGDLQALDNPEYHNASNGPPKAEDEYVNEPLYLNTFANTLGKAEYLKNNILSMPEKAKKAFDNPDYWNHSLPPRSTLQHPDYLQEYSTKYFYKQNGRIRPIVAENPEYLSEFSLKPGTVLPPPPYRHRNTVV
T1 sequence (P04626 23-1255 partner): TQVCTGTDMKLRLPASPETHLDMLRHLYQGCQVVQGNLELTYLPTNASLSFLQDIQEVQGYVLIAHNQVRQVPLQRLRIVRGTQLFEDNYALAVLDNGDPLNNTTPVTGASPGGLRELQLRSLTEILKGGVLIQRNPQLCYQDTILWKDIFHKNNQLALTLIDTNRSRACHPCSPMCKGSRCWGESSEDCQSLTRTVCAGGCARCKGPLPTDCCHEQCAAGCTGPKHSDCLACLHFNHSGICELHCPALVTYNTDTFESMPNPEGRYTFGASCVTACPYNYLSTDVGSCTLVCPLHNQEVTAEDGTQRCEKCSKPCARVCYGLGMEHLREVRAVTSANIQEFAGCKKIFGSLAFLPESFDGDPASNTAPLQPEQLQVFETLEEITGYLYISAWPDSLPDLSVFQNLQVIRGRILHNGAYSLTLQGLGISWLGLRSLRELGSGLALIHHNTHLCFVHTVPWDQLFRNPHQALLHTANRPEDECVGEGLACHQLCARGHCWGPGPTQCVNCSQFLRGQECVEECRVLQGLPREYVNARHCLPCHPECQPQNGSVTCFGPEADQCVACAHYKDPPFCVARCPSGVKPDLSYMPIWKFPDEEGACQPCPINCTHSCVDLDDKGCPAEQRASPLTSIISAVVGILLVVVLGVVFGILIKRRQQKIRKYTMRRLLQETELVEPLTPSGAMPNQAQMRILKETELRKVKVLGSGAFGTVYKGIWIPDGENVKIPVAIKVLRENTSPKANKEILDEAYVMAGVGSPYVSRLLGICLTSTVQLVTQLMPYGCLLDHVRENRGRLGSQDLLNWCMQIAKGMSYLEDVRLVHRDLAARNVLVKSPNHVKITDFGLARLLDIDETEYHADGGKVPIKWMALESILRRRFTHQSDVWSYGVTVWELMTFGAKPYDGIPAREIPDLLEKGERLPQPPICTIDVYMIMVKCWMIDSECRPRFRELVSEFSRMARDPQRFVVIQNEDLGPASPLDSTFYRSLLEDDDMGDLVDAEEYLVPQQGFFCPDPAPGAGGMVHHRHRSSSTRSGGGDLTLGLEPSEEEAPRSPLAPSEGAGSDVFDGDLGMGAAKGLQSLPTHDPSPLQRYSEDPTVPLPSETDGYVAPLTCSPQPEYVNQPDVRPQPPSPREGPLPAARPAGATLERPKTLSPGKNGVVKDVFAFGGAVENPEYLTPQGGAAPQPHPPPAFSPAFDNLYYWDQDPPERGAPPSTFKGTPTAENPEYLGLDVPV

`O=C(NC1CC1)C(Sc1nc2ccccc2c(=O)n1C1CCCC1)c1ccccc1` (stereo not drawn) [EF-1]: the “In vivo DOX experiment in female wild type mice with EF-1 (cTnI)” value in test [1] (female wild type mice, DOX/EF-1 group, individual animals, Fig. 6b) was 8.09 and 3.543 and 6.879 and 1.657 and 7.427 and 2.8057 and 6.224 and 3.861. Further, the “effect on DOX-induced increase in circulating cTnI plasma levels (in words)” value in test [1] (female wild type mice, EF-1 2 mg/kg, 7 days, DOX 20 mg/kg IP day 4) was “significantly prevented the DOX-induced increase in circulating cTnI plasma levels”. Moreover, in test [1] (fmale wild type mice, DOX/EF-1 group, individual animals, Fig. 6c), the “In vivo DOX experiment in fmale wild type mice with EF-1 (cTnI)” value is 273.659 and 148.181 and 198.844 and 244.235 and 228.218 and 232.739 and 226.672 and 236.453 and 259.198. For the same compound, at ERBB2/ERBB4, the EC50 (commonly the midpoint of the concentration-response curve) is greater than 32 µM. Further, the ERBB4/ERBB2 dimerization signal at ERBB2/ERBB4 (3.125e-8 M) is 0; at ERBB2/ERBB4 (6.25e-8 M), 10.52 and 1.76 and 3.95 and -0.62 and 8.84 and 32.1 and -4.84 and 13.1; on ERBB2/ERBB4 (1.25e-7 M) it was 11.16 and 1.7 and 0.22 and 2.37 and 10.84 and 42.31 and 0.8 and 15.8; on ERBB2/ERBB4 (2.5e-7 M) it was 14.28 and 2.37 and -0.2 and 2.18 and 11.16 and 44.62 and 2.21 and 32.89; on ERBB2/ERBB4 (5e-7 M), 15.8 and 3.34 and -0.84 and 2.5 and 14.03 and 46.76 and 10.28 and 38.19; at ERBB2/ERBB4 (1e-6 M), 17.47 and 6.72 and 2.79 and 5.79 and 18.63 and 53.25 and 13.21 and 49.02. The ERBB4/ERBB2 dimerization signal on ERBB2/ERBB4 (2e-6 M) was 23.23 and 10.36 and 6.17 and 10.55 and 22.36 and 58.49 and 25.9 and 62.1; on ERBB2/ERBB4 (4e-6 M), 39.65 and 19.88 and 18.63 and 20.82 and 41.51 and 62.22 and 30.3 and 62.16; at ERBB2/ERBB4 (8e-6 M) it was 43.57 and 23.14 and 20.33 and 27.19 and 40.97 and 69.15 and 32.21 and 63.74; at ERBB2/ERBB4 (1.6e-5 M), 49.69 and 37.91 and 30.09 and 36.81 and 54.68 and 124.7 and 60.3 and 94.64; at ERBB2/ERBB4 (3.2e-5 M) it was 99.26 and 72.09 and 64.59 and 71.61 and 99.65 and 139.93 and 119.85 and 114.61. The “efficacy in ERBB2/ERBB4 dimerization assay at the highest concentration (in words)” value on ERBB2/ERBB4 (highest concentration) is “like the natural ligand NRG1”. The “anti-hypertrophic effect of EF-1 under ERK1/2 pathway inhibition (PD98059) (in words)” value in the test with iAMs is “blocked upon inhibition of the ERK1/2 pathway”. Besides, in the test on iAMs (EF-1 4–32 µM), the “effect on AngII-induced increase in CSA (in words)” value is “dose-dependently attenuated”.
